These results are taken from patent publication US20260137697A1, “THIAZOLO[5,4-D]PYRIMIDINE COMPOUNDS, COMPOSITIONS COMPRISING THEM AND USES THEREOF” (University de Montreal, priority 2022, published 2026).

Like-named read-outs stand apart in the source and are kept apart here.

In general, IC50 refers to the concentration at which inhibition is half-maximal. Read a low IC50 as greater potency in that assay.

Holding throughout (type): cell-based, human
The subject of one experiment is Calu6 cells. As to the kind of experiment: Proliferation inhibition, CellTiter-Glo, Calu-6. The note with it: Table D-2, Calu6 (KRAS Q61K), 3 days, read-out: Prolif. (proliferation EC50). The protocol:
(§1) All cancer cell lines (A375, A101D, A2058, RKO, HT29 SK-MEL 30, IPC298, HepG2, HCT-116, Lovo, SW620, SW480, NCI-H358, NCI-H2122, Calu-6, NCIH2087, NCIH1755, NCIH1666 and Mewo) were obtained from ATCC and cultured in RPM1-1640 medium (Gibco) supplemented with 5% heat inactivated fetal bovine serum (FBS, Wisent) at 37° C. under 5% CO2. Cells were maintained in T175 flasks (Greiner). They were passaged by removing the culture medium, washing once in 10 mL of room temperature Phosphate Buffered Saline (PBS; Wisent) and incubating at 37° C. with 2 mL of 0.05% Trypsin (Thermo-Fisher). Trypsin was then inactivated by adding complete growth medium and the cells were then replated in a T175 culture dish at the appropriate dilution. All cell lines were routinely tested for mycoplasma contamination. Tissue type and mutational status of each cell line can be found in Table B.
(§2) CellTiter-Glo® viability analysis was conducted on cells plated in 100 μL of complete RPMI-1640 growth medium in 96-well flat-bottomed white opaque plates (Greiner or Croning) at a density indicated in Table E (for each CCL, number of cells plated per well of a 96-well plate to perform the CellTiter-Glo® cell viability assay). The cell density in cells/cm^2 would correspond to cell number divided by the area of one well of a 96-well plate (0.32 cm^2). […]
(§3) After 3 days of incubation, the growth media were removed by aspiration and 60 μL of diluted CellTiter-Glo® reagent (10 μL CellTiter-Glo® reagent+50 μL of PBS) was added to each well. […] Luminescence signals were then acquired on a Synergy Neo2 plate reader (Biotek).
(§4) The effect of each compound dilution on the proliferation of cancer cell lines was expressed in % inhibition and calculated as follows. […]
(§5) The ability of each compound to inhibit proliferation was expressed as a EC50 value obtained by plotting the effect values for each data point of a dilution series and fitting the obtained curves using a log(agonist) versus response—variable slope (four parameters) function using GraphPadPrism (V7.0) or Dotmatics Screening Ultra platform.
A general note: Cellular ATP, detected with luciferase, serves as a proxy for viable cell number.

A further experiment deals with SW480 cells. Briefly: Proliferation inhibition, CellTiter-Glo, SW480. The note with it: Table D-2, SW480 (KRAS G12D), 3 days, read-out: Prolif. (proliferation EC50). On the procedure:
as §1, §2, §3, §4, §5

In a further experiment the test system is pERK, SW620 cells. As to the kind of experiment: Phospho-ERK inhibition, AlphaLISA p-ERK 1/2, SW620. Particulars: Table D-2; for IC50: SW620 (KRAS-G12V); for pERK value in parentheses, % inhibition (Ymin): SW620, lowest point of IC50 curve. On the procedure:
as §1
(§6) (c) Measurement of Phospho-ERK Inhibition in Cultivated Human Cancer Cell Lines by the AlphaLISA® SureFire® Ultra™ p-ERK 1/2 (Thr2O2/Tyr204)
(§7) AlphaLISA® SureFire® Ultra™ p-ERK 1/2 (Thr202/Tyr204) analysis was conducted on cells plated in 100 μL of complete RPMI-1640 growth medium in 96-well flat-bottomed transparent dishes (Costar) at a density indicated in Table C. Cells were maintained overnight at 37° C. under 5% CO2 before treatment with compounds' dilution series for one hour. The cell density in cells/cm^2 corresponds to cell number divided by the area of one well of a 96-well plate (0.143 cm^2).
(§8) In a dilution series 100 μL/well of test substance dilution prepared in complete RPMI-1640 growth media was added to the cells. The dilution series is selected so that ten concentrations cover a range from 10 μM to 0.33 nM. If necessary, the initial concentration of 10 μM is increased to 100 μM or lowered to 1 μM (as in the case of A375 and H1666 cells, which are generally more sensitive to the compounds) and further dilution is carried out accordingly. The final concentration of DMSO in the assay is set at 0.5%.
(§9) After treatment, media was removed, and cells were lysed in 50 μL of 1× AlphaScreen Ultra Lysis Buffer (Perkin Elmer). The AlphaLISA® SureFire® Ultra™ p-ERK 1/2 (Thr202/Tyr204) (PerkinElmer) reactions were performed with 5 μL of cell lysate according to the manufacturer's specifications in 384-well proxyplates (Perkin Elmer) followed by overnight incubation of the reactions at room temperature in a humidified chamber. After completion of the reactions, the signals were recorded on an EnVision plate reader (Perkin Elmer) using built in AlphaLISA® settings.
(§10) The effect of each compound dilution on the pERK signal was expressed in % inhibition and calculated as follows. An internal 100% inhibition control (1 μM trametinib, cat. No. HY-10999; MedChem Express; CAS No. 871700-17-3) was included in each plate and used as a measure of pERK background. First, the value obtained for trametinib was subtracted from each data point. The average of DMSO (vehicle) controls (set as 0% inhibition) was established and used to calculate % inhibition:
(§11) The ability of each compound to inhibit pERK signal was expressed as an IC50 value obtained by plotting the inhibition values for each data point of a dilution series and fitting the obtained curves using a log(agonist) versus response—variable slope (four parameters) function using GraphPadPrism (V7.0) or Dotmatics Screening Ultra platform.
(§12) When present, paradoxical pERK induction is inferred from the negative % inhibition values observed in the pERK IC50 curves of a compound.
A general note: In Alpha technology, singlet oxygen from a donor bead excites a nearby acceptor bead.

For a further experiment, the system named is SW620 cells. Briefly: Proliferation inhibition, CellTiter-Glo, SW620. The note with it: Table D-2, SW620 (KRAS-G12V), 3 days, read-out: Prolif. (proliferation EC50). On the procedure: as §1, §2, §3, §4, §5
A further experiment has as its system pERK, Mewo cells. As to the kind of experiment: Phospho-ERK inhibition, AlphaLISA p-ERK 1/2, Mewo. Particulars: Table D-2; for IC50: Mewo (NF1 LOF); for pERK value in parentheses, % inhibition (Ymin): Mewo, lowest point of IC50 curve. The protocol: as §1, §6, §7, §8, §9, §10, §11, §12
Another experiment has as its system IPC298 cells. Briefly: Proliferation inhibition, CellTiter-Glo, IPC298. The note with it: Table D-1, IPC298 (NRAS-Q61L), 3 days, read-out: Prolif. (proliferation EC50). The protocol: as §1, §2, §3, §4, §5

Turning to `Cc1ccc2c(Nc3cccc(Cl)c3F)nccc2c1NC(=O)c1csc2c(N)ncnc12` [Belvarafenib, reference compound], the EC50 in the experiment with Calu6 cells (Homo sapiens, Calu-6, 72 h) is < 300 nM; in the experiment on SW480 cells (Homo sapiens, 72 h), 300 to 3000 nM; in the experiment on SW620 cells (Homo sapiens, SW-620, 72 h) it was 300 to 3000 nM; in the experiment on IPC298 cells (Homo sapiens, IPC-298, 72 h), < 300 nM. The IC50 lay in the range of 30 to 300 nM in the experiment on pERK, SW620 cells (Homo sapiens, SW-620) and 30 to 300 nM in the experiment on pERK, Mewo cells (Homo sapiens). Moreover, the “pERK value in parentheses, % inhibition (Ymin)” value (“pERK value … % inhibition (Ymin)” below) with pERK, SW620 cells is “(−151) %”; in the experiment on pERK, Mewo cells, “(−116) %”.

On to `N#CC1(c2cccc3c2ncn3-c2nc3c(Nc4c(F)ccc(NS(=O)(=O)c5cccc(Cl)c5Cl)c4F)ncnc3s2)CC1` [Example 122], for which the EC50 with Calu6 cells, with SW480 cells, in the experiment with SW620 cells and in the experiment on IPC298 cells was < 300 nM each time. The IC50 in the experiment with pERK, SW620 cells lay in the range of 30 to 300 nM; in the experiment with pERK, Mewo cells, 30 to 300 nM. For the same molecule, the “pERK value … % inhibition (Ymin)” value in the experiment with pERK, SW620 cells is “(−6) %”; with pERK, Mewo cells, “(2) %”.

Turning to `Cc1c(F)cccc1S(=O)(=O)Nc1ccc(F)c(Nc2ncnc3sc(-n4cc(C(=O)N5C6CCC5CN(C)C6)c5ccccc54)nc23)c1F` [Example 44], the EC50 in the experiment with Calu6 cells, with SW480 cells, in the experiment on SW620 cells and in the experiment with IPC298 cells was < 300 nM in each case. Besides, the IC50 with pERK, SW620 cells was 30 to 300 nM; with pERK, Mewo cells, < 30 nM. Also, the “pERK value … % inhibition (Ymin)” value is listed as “(3) %” with pERK, SW620 cells and “(3) %” in the experiment with pERK, Mewo cells.
